The source of these data is patent publication US20130225523A1, “GLYCODENDRIMERS OF POLYPROPYLETHERIMINE” (priority 2010, published 2013).

Each structure is given as a SMILES string.

The subject of this assay is pro-inflammatory cytokines such as IL-6, IL-1 beta, TNF-alpha and MIP-1 beta. Kind of assay: Effect of unconjugated components on pro-inflammatory cytokines. Type of assay: cell-based. Conditions: even at high doses.

As for `N[C@H]1C(O)O[C@H](CO)[C@@H](O)[C@@H]1O` (stereo partly shown) [glucosamine], the “effect on pro-inflammatory cytokines such as IL-6, IL-1 beta, TNF-alpha and MIP-1 beta” value is on record as “no effect”.
